From US5866787A, “Transgenic plants co-expressing a functional human 2-5A system” (Cleveland Clinic Foundation, priority 1995, dated 1999)

How the values were obtained:
[1] = test system: 2-5A-dependent RNase; conditions: cited from earlier work
[2] = test system: recombinant human RNase L; test: 2-5A dependent ribonuclease L assay, poly(U) cleavage; assay type: biochemical; conditions: about 30° C. for about 2 hr
Procedure: FIG. 25. Transgenic plants produce functional, human recombinant 2-5A synthetase. Extracts of plants containing cDNA to both human RNase L and 2-5A synthetase (lanes 8-11), of control plants that are transformed with vector alone (lanes 12-15), and of interferon treated human HeLa cells (lanes 16 and 17) are assayed for 2-5A synthetase activity. 2-5A synthetase activity in extracts of transgenic plants is determined by a functional assay for 2-5A. […] The total cell lysates are centrifuged at about 10,000×g for about 10 min at about 4° C., the supernatants are collected and the protein concentration is determined as described in Bradford, M. et al.: Anal. Biochem., 72:248 (1976). […] 2-5A is monitored by its ability to activate RNase L, which are expressed and isolated from insect cells, Dong, B. et al.: J. Biol. Chem., 269:14153 (1994), to cleave poly (U) to discrete products (arrows). […]
To determine if 2-5A synthetase is present in the transgenic tobacco plants, functional assays for the enzyme are performed. 2-5A synthetase activity in extracts of transgenic plants is determined by a functional assay for 2-5A. […] The total cell lysates are centrifuged at about 10,000×g for about 10 min at about 4° C., the supernatants are collected and the protein concentration is determined. […]

[3] = test system: RNase L; test: 2-5A injection into detached leaves, 18S rRNA northern blot; assay type: cell-based, transgenic tobacco; conditions: about 2.5 μM injected, about 3 hrs; not in control or synthetase-only plants
Procedure: FIG. 24. […] Leaves are injected with about 2.5 μM 2-5A, total RNA is extracted after 3 hr and probed with ^32 P-labeled 18S cDNA. Lanes 1-2, control plant, lanes 3 and 4, plant expressing only 2-5A synthetase (Syn); lane 5, plant expressing only RNase L (RL); lanes 6-7, plants expressing both 2-5A synthetase and RNase L (Syn+RL).
Functional expression of RNase L in transgenic tobacco plants is detected by 2-5A-induced breakdown of 18S ribosomal RNA (rRNA) in detached leaves that are injected with 2-5A. Transgenic leaves are injected with about 2.5 μM p3 A(2'p5'A)3 and are incubated for about 3 hrs before total RNA is prepared. […] In addition, plants expressing RNase L are believed to have specific 2-5A binding activity that is absent in control, non-transgenic plants.

[4] = test system: RNase L; test: 2-5A uptake by cut leaves, 18S rRNA northern blot; assay type: cell-based, transgenic plant expressing human RNase L; conditions: 1 μM taken up by cut leaves for seven hours; not in control plant
Procedure: FIG. 30 illustrates that RNase L in cut leaves is activated to cleave rRNA by incubation in a solution containing 2-5A. A northern blot probed with ^32 P-labeled cDNA to […] rRNA is shown. The cut leaves are from a control plant (lanes 1 and 2) or from a plant transgenic for human RNase L cDNA (lanes 3 and 4). The presence or absence of 2-5A and the position of the 2-5A-mediated rRNA cleavage products are shown.
Leaves from control and transgenic plants are cut and allowed to take up 2-5A [1 μM of p3 (A2'p)3 A] through the petiole for about seven hours at room temperature under fluorescent light. Total RNA is prepared and used to prepare northern blots. THe RNA in the blots is hybridized to a ^32 P labeled human 18S rRNA cDNA probe (the cDNA is provided by Dr. John Thaden, Baltimore).
To monitor uptake of 2-5A, leaves are cut at the base of the petiole and then placed in a solution of ^32 P-labeled 2-5A probe for about three hours at room temperature under light. The petiole was cut further and autoradiograms were made from the lamina. Uptake and translocation of the 2-5A probe is readily apparent through veins to all parts of lamina (data now shown). Catalytic activity of RNase L in the intact leaves is determined after allowing unlabeled 2-5A, p3 A(2'p5'A)3 (1 μM), to be taken up by cut leaves for seven hours. […]

[5] = test system: 2-5A-dependent RNase; conditions: depending on the cell type; cited from earlier work
[6] = test system: 32P-2-5A probe; test: 2-5A probe crosslinking to lysine to asparagine mutants, phosphorimager analysis; assay type: binding; conditions: uv crosslinking, phosphorimager analysis of dried gel

Nc1ncnc2c1ncn2[C@@H]1O[C@H](COP(=O)(O)OP(=O)(O)OP(=O)(O)O)[C@@H](O)[C@H]1O [ATP]
stimulatory effect on 2-5A-dependent RNase activity [1]: two-fold

pA(2'p5'A)3
activation of RNase L to cleave poly(U) [2]: production of discrete poly (U) cleavage products

p3 A(2'p5'A)3
degradation of rRNA in plants expressing RNase L [3]: degradation of rRNA | degradation of 18S rRNA in RNase L expressing plants [4]: induce degradation of the 18S rRNA to discrete cleavage products

interferon
enhancement of levels of 2-5A-dependent RNase [5]: two- to twenty-fold

B1: ZB1(Lys^240,274 →Asn): clone ZB1 double mutant, lysines 240 and 274 mutated to asparagine (protein, UniProt Q05921 1-735, looked up, variant K240N K274N)
2-5A-dependent ribonuclease: METPDYNTPQGGTPSAGSQRTVVEDDSSLIKAVQKGDVVRVQQLLEKGADANACEDTWGWTPLHNAVQAGRVDIVNLLLSHGADPHRRKKNGATPFIIAGIQGDVKLLEILLSCGADVNECDENGFTAFMEAAERGNAEALRFLFAKGANVNLRRQTTKDKRRLKQGGATALMSAAEKGHLEVLRILLNDMKAEVDARDNMGRNALIRTLLNWDCENVEEITSILIQHGADVNVRGERGNTPLIAAVERKHTGLVQMLLSREGINIDARDNEGNTALLIAVDKQLKEIVQLLLEKGADKCDDLVWIARRNHDYHLVKLLLPYVANPDTDPPAGDWSPHSSRWGTALKSLHSMTRPMIGKLKIFIHDDYKIAGTSEGAVYLGIYDNREVAVKVFRENSPRGCKEVSCLRDCGDHSNLVAFYGREDDKGCLYVCVSLCEWTLEEFLRLPREEPVENGEDKFAHSILLSIFEGVQKLHLHGYSHQDLQPQNILIDSKKAVRLADFDQSIRWMGESQMVRRDLEDLGRLVLYVVMKGEIPFETLKTQNDEVLLTMSPDEETKDLIHCLFSPGENVKNCLVDLLGHPFFWTWENRYRTLRNVGNESDIKVRKCKSDLLRLLQHQTLEPPRSFDQWTSKIDKNVMDEMNHFYEKRKKNPYQDTVGDLLKFIRNIGEHINEEKKRGMKEILGDPSRYFQETFPDLVIYIYKKLKETEYRKHFPQPPPRLSVPEAVGPGGIQS
2-5A binding activity, % of clone ZB1 [6]: 12.2%
